The term IC50 denotes the point on the concentration scale where inhibition reaches its midpoint.

We go through three compounds from publication PMC9610999, “Itraconazole-Induced Increases in Gilteritinib Exposure Are Mediated by CYP3A and OATP1B” (Molecules, 2022).

For data set [1], the target named is T1, human OATP1B1 (SLCO1B1) (Homo sapiens, UniProt Q9Y6L6).
T1 construct: expressed in transfected cells; host or cells: HEK293
T1 sequence (Q9Y6L6 1-691): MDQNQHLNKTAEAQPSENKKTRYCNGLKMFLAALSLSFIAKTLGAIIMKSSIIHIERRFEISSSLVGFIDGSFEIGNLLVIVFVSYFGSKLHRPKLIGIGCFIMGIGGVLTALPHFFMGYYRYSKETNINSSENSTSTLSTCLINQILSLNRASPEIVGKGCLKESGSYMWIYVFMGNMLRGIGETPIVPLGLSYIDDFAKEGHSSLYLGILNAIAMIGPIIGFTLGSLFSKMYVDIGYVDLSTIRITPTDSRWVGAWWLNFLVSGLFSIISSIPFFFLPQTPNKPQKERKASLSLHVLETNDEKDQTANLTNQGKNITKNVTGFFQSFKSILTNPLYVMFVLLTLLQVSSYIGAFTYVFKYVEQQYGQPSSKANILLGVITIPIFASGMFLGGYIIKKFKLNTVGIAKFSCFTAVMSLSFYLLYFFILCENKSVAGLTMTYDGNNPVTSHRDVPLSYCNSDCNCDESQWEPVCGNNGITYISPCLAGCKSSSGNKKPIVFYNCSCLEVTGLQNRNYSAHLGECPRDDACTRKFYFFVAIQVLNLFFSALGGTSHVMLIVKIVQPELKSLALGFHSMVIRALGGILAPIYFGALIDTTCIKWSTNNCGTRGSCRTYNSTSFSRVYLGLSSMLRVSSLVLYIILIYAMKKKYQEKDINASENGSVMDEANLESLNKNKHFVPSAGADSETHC
Kind of data set: Transport inhibition assay: EβG uptake in OATP1B1 overexpressing HEK293 cells. The class given is cell-based. The note with it: OATP1B1 overexpressing HEK293 cells vs vector control; radiolabeled EβG; 15 min pre-incubation; read-out: IC50, inhibition of OATP1B1-mediated cellular accumulation of EβG. The procedure: Human embryonic kidney (HEK293) cells stably transfected with human OATP1B1 (SLCO1B1) cDNA, or an empty control vector were established and cultured as previously described. Cells were maintained in DMEM supplemented with 10% FBS, 50 µg/mL hygromycin B, 15 µg/mL blasticidin, and maintained in a humidified incubator at 37 °C with 5% CO2. Prior to plating, 24-well tissue culture plates (Thermo Fisher Scientific) were coated with poly-d-lysine. Seeding media was prepared using phenol red-free DMEM with 10% FBS with no selection agents. To the seeding media, […] of doxycycline was added to induce expression of OATP1B1.
OATP1B1 overexpressing cells and vector control cells were plated in 24-well tissue culture plates at a volume of 0.5 mL (containing 2 × 10^6 cells/mL) per well. Plates were returned to an incubator at 37 °C and transport assays were conducted 24 h later. Transport activity was measured using EβG, a prototypical substrate of OATP1B1. Experiments were conducted using phenol red- and serum-free DMEM. Intracellular levels of total radioactivity originating from EβG were assessed by liquid scintillation counting. The resulting counts were normalized to total protein levels as determined by a Pierce protein assay. The influence of gilteritinib, itraconazole, keto-itraconazole, or hydroxy-itraconazole on OATP1B1-mediated transport was assessed following a 15 min pre-incubation at various concentrations of test inhibitors followed by co-incubation of test inhibitors with EβG. Inhibition of transport activity by gilteritinib was determined by comparing the accumulation of EβG in the presence of gilteritinib, itraconazole, keto-itraconazole, or hydroxy-itraconazole to that of EβG in the presence of only the control vehicle, DMSO. The final concentration of DMSO in media was less than 0.2% in all in vitro experiments.

The test system of data set [2] is CDCA-24G, an endogenous biomarker of OATP1B transporter function. The data set can be described thus: Plasma CDCA-24G (endogenous biomarker of OATP1B function) in mice treated with itraconazole. The class given is in vivo.
Data set [3] deals with OATP1B biomarkers coproporphyrin (CP) I and CPIII. The arrangement: method as in PMID 34049965, PMID 29777022. The note with it: itraconazole 100 mg to human subjects; cited from earlier work.

With `CC(O)C(C)n1ncn(-c2ccc(N3CCN(c4ccc(OCC5COC(Cn6cncn6)(c6ccc(Cl)cc6Cl)O5)cc4)CC3)cc2)c1=O` (stereo not shown) [hydroxy-itraconazole], in data set [1], the IC50 turned out to be 2.95 µM.
As to `CCC(C)n1ncn(-c2ccc(N3CCN(c4ccc(OCC5COC(Cn6cncn6)(c6ccc(Cl)cc6Cl)O5)cc4)CC3)cc2)c1=O` (stereo not shown) [Itraconazole], the “CDCA-24G AUC0–4h” value in data set [2] (100 mg/kg) was 5.10 (±1.60) ng ∗ h/mL; in data set [2] (CYP3A(−/−) female mice, itraconazole 100 mg/kg) it was 3.30 (±1.00) ng ∗ h/mL. The “CDCA-24G AUC Fold Increase” value in data set [2] (CYP3A(−/−) mice, itraconazole 100 mg/kg, vs. CYP3A(−/−) untreated) was found to be 1 fold; in data set [2] (CYP3A(−/−) mice, itraconazole 100 mg/kg, vs. WT Alone), 0.9 fold; in data set [2] (Wild-type FVB mice, itraconazole 100 mg/kg, vs. CYP3A(−/−) + Itraconazole) it was 1.5 fold; in data set [2] (Wild-type FVB mice, itraconazole 100 mg/kg, vs. WT untreated), 1.3 fold. The IC50 in data set [1] was 27.3 µM. Besides, the “Effect on circulating levels of coproporphyrin (CP) I and CPIII” value in data set [3] is on record as “not associated with changes”.
`CC(=O)C(C)n1ncn(-c2ccc(N3CCN(c4ccc(OC[C@H]5CO[C@](Cn6cncn6)(c6ccc(Cl)cc6Cl)O5)cc4)CC3)cc2)c1=O` (stereo partly shown) [keto-itraconazole]: the IC50 in data set [1] was 7.5 µM.
